Patent publication US20250288645A1, “USE OF GsMTx4 AND GsMTx4 CONJUGATES TO IMPROVE RECOVERY FROM JOINT INJURY” (priority 2023, published 2025)

Experiments:
[1] = system: humeral head chondrocytes; assay: Explanted humeral head impact loading (2 mJ) after incubation with channel agonists; type: cell-based, mouse; settings: 10 μM yoda1 or 5 nM GSK101, 15 minutes, 2 mJ load; for humeral head chondrocyte cell death following impact loading, female mice: relative to control media; for humeral head chondrocyte cell death following impact loading, male mice: relative to controls (DMSO 0.25%)
Description: Ethical approval was obtained from the appropriate institutional committee Humeri were harvested from wild-type 12-22 week old C57Bl/6 male and female mice. Each specimen was placed in calcium imaging buffer with 2 mM calcium chloride and subsequently incubated with 10 μM calcein-AM for 30 minutes at 37° C. To indicate intracellular esterase activity of living cells, each specimen was incubated with 10 μM yoda1, a Piezo1-specific agonist, 5 nM GSK101, a TRPV4-agonist, or control (DMSO 0.25%, n=7-10/group) in calcium imaging buffer for 15 minutes. Specimens were then incubated with 1.5 nM ethidium homodimer-1 for 3 minutes to indicate loss of plasma membrane integrity in dead cells. The specimen was then arranged in a custom 3-D printed holding device such that the chondrocytes within the apex of sphericity of the humeral head were facing the glass well of a dish to be imaged on an inverted confocal microscope. A baseline confocal image with overlay of 100 μm Z-stacks was obtained with 488 and 594 nm wavelengths to image live and dead cells, respectively. The humerus was then transferred to a custom impact loading apparatus. A 2 mJ load was applied to the lateral aspect of the proximal humerus, such that the convex apex of the humeral head cartilage was impacted against the glass microscope dish. A 2 mJ load was chosen based on preliminary work by Kotelsky to define mechanic-vulnerability of distal femur and proximal humerus articular chondrocytes in the custom loading apparatus. The samples were again incubated in ethidium homodimer-1. A post-injury confocal image with overlay of 100 μm Z-stacks was obtained. A custom MATLAB image processing algorithm was developed to quantify cell viability. The confocal images were processed as maximum intensity projections with threshold via Otsu's method. Then, watershed segmentation, distance transform, and centroid approximation algorithms were created and applied to segment and quantify individual cells based on intensity values. This facilitated the cell counting process, allowed quantification of the total cell area, and allowed adjustment of the region of interest between before- and after-impact micrographs.

[2] = system: chondrocytes; assay: Cartilage pre-treated with Yoda1: chondrocyte vulnerability to mechanical injury; type: cell-based, murine; settings: cartilage pre-treated with Yoda1, versus vehicle-treated controls in contralateral limbs

SMILES	humeral head chondrocyte cell death following impact loading, female mice [1]	humeral head chondrocyte cell death following impact loading, male mice [1]	chondrocyte vulnerability to mechanical injury [2]
CC(C)C[C@H](NC(=O)c1cc2ccccc2s1)C(=O)N1CCN(C(=O)[C@H](CO)NS(=O)(=O)c2ccc(Cl)cc2Cl)CC1 [Gsk101]	nor was incubation with Gsk101 chondroprotective	statistically significant decrease in humeral head chondrocyte cell death	–
Clc1cccc(Cl)c1CSc1nnc(-c2cnccn2)s1 [Yoda1]	not a significant increase in chondrocyte cell death	statistically significant increase in humeral head chondrocyte cell death	significantly higher chondrocyte vulnerability
